Earlier results, collected in US20060228403A1, “Nutritional supplements for cardiovascular health” (priority 2005, published 2006).
Each block holds one compound with its values, some of them ahead of it.

Columns and labels:
forearm microcirculation = conditions: after supplementation 4 g/d for 6 weeks
[1] = test system: cytochrome P450 omega-hydroxylase; conditions: hamster; for magnitude of O2-induced constriction of arterioles in the cremaster and retractor muscles: 17-octadecynoic acid 10 micromolar superfusion, DDMS intravenous infusion
thromboxane B2 = conditions: mice; fish oil daily by gavage six weeks; indomethacin 0.5 mg/kg ip acute
[2] = test system: platelet aggregation in cerebral arterioles; conditions: mice

- plasma phospholipid DHA composition (forearm microcirculation): increased
Compound: CC/C=C\C/C=C\C/C=C\C/C=C\C/C=C\C/C=C\CCC(=O)O [DHA, docosahexaenoic acid]

- plasma phospholipid EPA levels (forearm microcirculation): increased significantly
Compound: CC/C=C\C/C=C\C/C=C\C/C=C\C/C=C\CCCC(=O)O [EPA, eicosapentaenoic acid]

Compound: CS(=O)(=O)NC(=O)CCCCCCCCCC=C(Br)Br [N-methylsulfonyl-12,12-dibromododec-11-enamide]
- arteriolar constriction in response to elevated PO2 in the epithelial portion of the cheek pouch [1]: unaffected
- magnitude of O2-induced constriction of arterioles in the cremaster and retractor muscles [1]: significant reduction

Compound: C#CCCCCCCCCCCCCCCCC(=O)O [17-octadecynoic acid]
- arteriolar constriction in response to elevated PO2 in the epithelial portion of the cheek pouch [1]: unaffected
- magnitude of O2-induced constriction of arterioles in the cremaster and retractor muscles [1]: significant reduction

Compound: COc1ccc2c(c1)c(CC(=O)O)c(C)n2C(=O)c1ccc(Cl)cc1 [Indomethacin, indomethacin]
- decrease of serum thromboxane B2 (thromboxane B2): 80%
- effect on arteriolar platelet aggregation [2]: significantly slows
- increase of time to first arteriolar aggregate ([2]; 0.5 mg/kg ip acute): 35%
